Test results published in patent publication US4939177A, “Use of avarol for the control of AIDS and ARC” (Merz + Co. GmbH & Co., priority 1986, dated 1990).

Test system: human peripheral blood lymphocytes (IgM)
Assay: In vitro IgM production by peripheral blood lymphocytes
Format: cell-based
Description: Human peripheral blood lymphocytes (6×10^5 cells/ml) were cultured in the presence of 0 to 2 μg/ml of pokeweed mitogen (PWM; Sigma no. 9379) in Dulbeccos minimum essential medium, supplemented with 20% fetal calf serum, for 6 days. The assays were performed in a final volume of 200 μl in microtiter plates (Dynatech; M129B) (Muller et al., Eur. J. Cancer Clin. Oncol. 22: 473-476; 1986). Avarol in a concentration range of 0-3 μg/ml was added at time 0 or 3 days after starting the culture. The supernatants were harvested and assayed for human immunoglobulin content.
The culture supernatants were assayed by the enzyme-linked immunosorbent assay (Houtman et al., Clin. Exp. Immunol. 62: 696-704; 1985) using anti-human IgG (Dakopatts, Hamburg; P214) and anti-human IgM (Dakopatts; P215). These antibodies were conjugated to peroxidase. Bound enzyme activity was measured using 2,2'-azino-bis(3-ethylbenzthiazolinesulfonic acid) (Sigma no. A-1888) as substrate.

With `CC1=CCC[C@H]2[C@](C)(Cc3cc(O)ccc3O)[C@@H](C)CC[C@]12C` [Avarol, 2-[(1R)-1,2,3,4,4a,7,8,8aα-octahydro-1β,2β,4aβ,5-tetramethyl-1-naphthylmethyl]-1,4-benzenediol] the “IgM production, in words” value (0.3 or 1 μg/ml, irrespective of PWM) was “significant increase”, the IgM synthesized (avarol 0.3 μg/ml, PWM +, 0 to 6 days) was 20.4 ± 5.1 µg/mL and the IgM synthesized (avarol 0.3 μg/ml, PWM +, 3 to 6 days) was 24.7 ± 5.6 µg/mL. The IgM synthesized (avarol 0.3 μg/ml, PWM -, 0 to 6 days) was 14.7 ± 3.4 µg/mL, the IgM synthesized (avarol 0.3 μg/ml, PWM -, 3 to 6 days) was 14.2 ± 3.3 µg/mL and the IgM synthesized (avarol 1.0 μg/ml, PWM +, 0 to 6 days) was 23.5 ± 5.5 µg/mL. For the same compound, the IgM synthesized (avarol 1.0 μg/ml, PWM +, 3 to 6 days) was 25.6 ± 5.9 µg/mL, the IgM synthesized (avarol 1.0 μg/ml, PWM -, 0 to 6 days) was 15.6 ± 4.0 µg/mL and the IgM synthesized (avarol 1.0 μg/ml, PWM -, 3 to 6 days) was 15.9 ± 4.2 µg/mL. The IgM synthesized (avarol 3.0 μg/ml, PWM +, 0 to 6 days) was 10.5 ± 2.6 µg/mL, the IgM synthesized (avarol 3.0 μg/ml, PWM +, 3 to 6 days) was 11.7 ± 2.9 µg/mL and the IgM synthesized (avarol 3.0 μg/ml, PWM -, 0 to 6 days) was 8.1 ± 1.8 µg/mL. For the same compound, the IgM synthesized (avarol 3.0 μg/ml, PWM -, 3 to 6 days) was 8.4 ± 1.9 µg/mL and the “IgM production, in words” value (higher avarol concentrations) was “turned to normal values”.
